According to paper PMC4348352 (Bioorganic & medicinal chemistry letters, 2015):
≈ marks a conversion by molar mass, not a printed value.

Key:
[1] = test system: E. coli; conditions: cited from earlier work
[2] = test system: B. anthracis; conditions: cited from earlier work
[3] = test system: S. aureus; conditions: cited from earlier work
[4] = test system: F. tularensis; experiment: microbe, parasite or virus in culture; format: cell-based; conditions: Francisella tularensis
[5] = test system: E. coli TolC-; experiment: microbe, parasite or virus in culture; format: cell-based; conditions: Escherichia coli

## Cc1cc2ncn(Cc3ccc(Cl)c(Cl)c3)c2cc1C [Compound 1]
[1]
  MIC: >200 µg/mL
[2]
  MIC: 9.4 µg/mL (≈ 30.8 µM)
[3]
  MIC: 25 µg/mL (≈ 81.9 µM)

## CC(c1ccc(Cl)c(Cl)c1)n1cnc2cc3c(cc21)CCC3 (stereo not drawn) [Compound 3]
[4]
  MIC: 3.1 to 6.3 µg/mL (≈ 9.36 to 19 µM)

## CC(c1ccc(Cl)c(Cl)c1)n1cnc2cc3c(cc21)CCCC3 (stereo not drawn) [Compound 4]
[4]
  MIC: 3.1 to 6.3 µg/mL (≈ 8.98 to 18.2 µM)
[5]
  MBC: > 25 µg/mL
